Source: patent publication US4737519A, “Substituted naphthalenes, indoles, benzofurans, and benzothiophenes as lipoxygenase inhibitors” (The Upjohn Company, priority 1986, dated 1988)
pIC50: −log10 of the molar value.

Legend:
leukotriene synthesis = test: inhibition of leukotriene synthesis (standard laboratory test); format: cell-based
Experimental: Certain of the amino acyl compounds of this invention (when R3 is --C(O)--(CR17 R18)m --(CH2)n --NR14 R15, --C(O)--AA or --C(O)--PhX--NH2) were evaluated in a standard laboratory test to measure the inhibition of leukotriene synthesis. Four of the amino-type compounds of this invention were preferred in this test. Specifically, in this test system, L-Valine, 2,3-diethyl-4-methoxynaphth-1-yl ester, hydrochloride; L-Valine, 2-n-butyl-4-methoxynaphth-1-yl ester; L-Valine, 2-n-butyl-4-methoxynaphth-1-yl ester, hydrochloride; and L-Alanine, 2-n-butyl-4-methoxynaphth-1-yl ester were preferred.

mucous secretion = test: canine tracheal mucous secretion (hillock count); format: in vivo, mongrel dogs
Experimental: Mongrel dogs (weight 18-35 kg) were anesthetized with a mixture of chloralose (100 mg/kg) and urethane (500 mg/kg) via intravenous injection. The animals were secured to a surgery table, ventral side up, and the neck and inner right hind limb were shaved. A ventral midline incision was made in the neck using a Bovie CSVII electrosurgical unit, starting from the papillae (interramal) to the clavicle thus exposing the trachea. An endotracheal tube was secured into the lower trachea. The animals were then connected via the endotracheal tube to a Harvard respirator (Model 607A) that delivered room air at a constant tidal volume and frequency. Two polyethylene catheters were connected to the endotracheal tube, and one was connected to a medical gas analyzer (Beckman, Model LB-2) that continuously measured the carbon dioxide (CO2) content of the expired air for determination of end tidal CO2. The other was connected to a pressure transducer (Statham, Model PMI 131TC+2.5-350) for the measurement of airway press ure.
A second incision made in the inner right hind limb to expose the femoral artery and vein was made for the catheterization of these large vessels. A polyethylene catheter was tied into the artery and connected to a pressure transducer (Statham, Model P231D) for the measurement of blood pressure. This catheter also allowed for samples of arterial blood to be collected for measurements of blood gas tension using a blood gas analyser (Corning, Model 175). Another polyethylene catheter was tied into the femoral vein which was used for injecting additional anesthetic and paralyzing drugs. Gallamine triethiodide (20-40 mg) was used to paralyze the respiratory muscles and a single injection of sodium bicarbonate 7.5% (0.5 mg/kg) in conjunction with a continuous i.v. drip of 5% dextrose in 0.9% saline helped to maintain fluid balance. All physiological measurements were recorded and monitored on a polygraph (Grass instruments, Model 7D). Once the femoral cutdown was completed, surgery on the neck region resumed. The carotid artery was exposed and the "knuckle" (a portion of the carotid which bisects to supply blood flow to the trachea and neck muscles) was located. A small polyethylene catheter was then inserted into the muscular branch of the cranial thyroid artery (CTA). This allowed for close arterial injection of experimental agents. The strap muscles were removed and the mucosal surface of the trachea exposed by cutting along the anterior midline of the upper two-thirds of the extrathoracic trachea and pulling the cut edges widely apart. The exposed mucosa was checked for proper canulation by blanching and appropriate adjustments of the canula into the CTA were made until blanching was achieved.
Isometric tension measurements of the trachealis muscle were recorded by suturing a rigid, plastic bar to the (15) cartilaginous rings of the cut edges of the trachea, and connecting one side to a fixed restraint and the contralateral side to a force displacement transducer (Grass, Model FT 03C). An initial tension of 25-30 g/cm of trachea was applied to the muscle, and it was allowed to stabilize for 45 min. An initial zero tension point was determined before agonists were injected into the CTA, and the zero was readjusted after agonist injections.
To visualize secretions coming from the submucosal gland duct openings of the trachea, powdered tantalum, an inert metal (2-5 microns in size) was sprayed on the trachea until it formed a uniform layer over the mucosal surface. The tantalum itself did nothing to normal secretion, but prevented the normal ciliary dispersion of secretions from the gland duct openings; these secretions, therefore, caused elevations ("hillocks") in the tantalum layer. The number of hillocks formed in a 1.2 cm^2 field, 1-2 cm from the larynx, were counted and their images were recorded with a video camera (Hitachi CCTV, Model HV-17TU) mounted on a dissecting microscrope (Zeiss Ompi-1) with a beam splitter. […]

lipoxygenase = lipoxygenase inhibition, oxygen uptake of washed human platelets with arachidonic acid; format: cell-based; details: for inhibition of 5-HETE production: 10 μm
Experimental: The compounds of the present invention were also tested for lipoxygenase inhibition. Arachidonic acid is added to washed human platelets and the oxygen uptake is measured using oxygraph cells. A decrease of oxygen uptake versus the control cell indicates inhibition of lipoxygenase. For a full description of the procedure see, Wallach, et al., Biochim. Biophys. Acta. 231: 445 (1976).

SRS-A = SRS-A synthesis inhibition in rat mononuclear cells incubated with cysteine and challenged with calcium ionophore; format: cell-based; details: 10 micrograms/ml
Experimental: This test is conducted in rat mononuclear cells incubated in the presence of cysteine and challenged with a calcium ionophore (which induces SRS-A formation). Among the nonamino compounds of this invention, in this test system, 1-acetoxy-2-n-butyl-4-methoxynaphthalene (Example 3) and 1-acetoxy-2,3-diethyl-4-methoxynaphthalene (Example 4) are preferred.

deep vein thrombosis = test: deep vein thrombosis: jugular vein stasis in cats, scanning electron microscopy; format: in vivo, domestic short hair cats
Experimental: Nine adult domestic short hair cats weighing 4.5-5 kg were anesthetized with sodium pentabarbital (25-30 mg/kg i.v.). The neck area was prepared for a sterile cut down procedure and the jugular veins were exposed. After exposure of the veins each animal was injected with epsilon amino caproic acid (eaca) to inhibit plasminogen activation (2.5 grams i.v. in Tyrode's solution). […] Six of the cats were also treated with 2,3-diethyl-4-methoxy-1-naphthalenol, acetate. Three of the cats were given 1 mg/kg i.v. and 3 of the cats were treated with 5 mg/kg i.v. prior to venous occlusion. The jugular veins were carefully dissected free of surrounding connective tissue and the vein was ligated at the thoracic inlet with 3-0 dexon. The skin incision was closed and the animals were maintained in surgical anesthesia for 2 hours. At the end of the 2 hour waiting period, the jugular veins were exposed again. A 25 gauge butterfly needle was positioned into the lumen and blood was flushed out of the vein with heparinized Tyrode's solution (1U heparin/ml). The veins were tied off and removed under physiologic pressure. The vessels were immediately immersed in a 2.5% glutaraldehyde solution prepared in Tyrode's solution for fixation. The veins were fixed overnight at 5 degrees centigrade, postfixed in 1% osmium tetroxide overnight, dehydrated in ethanol and substituted by amyl acetate. All veins were critical point dried from carbon dioxide using a Denton DCP-1 critical point drying apparatus. The veins were mounted on stubas, gold coated on a Denton DV-502 modified vacuum evaporator and examined on a Cambridge Stereoscan 150 scanning electron microscope.
Two hours of jugular vein stasis following the trauma of dissection caused massive white cell adhesion to and migration under the venous endothelium of non-treated cats and produced sloughing of the endothelium and exposure of the basement membrane. This damage was sufficient to initiate thrombosis. Many of the exposed areas of basement membrane had adherent platelets. The platelets were adherent as monolayers or as aggregates. In some areas fibrin was found deposited on the endothelium or exposed basement membrane. Leukocytes were occasionally associated with the fibrin.

human airways = details: in vitro; cited from earlier work
[1] = 1.0 mg/kg oral, predose time 3.5 hr, n=2, ↑ indicates stimulation
[2] = 5 mg/kg oral, predose time 3.5 hr, n=2
[3] = 1.0%, inhalation, n=6, ***p<0.0001

CCc1c(CC)c(OC(=O)[C@@H](N)C(C)C)c2ccccc2c1OC.Cl [L-Valine, 2,3-diethyl-4-methoxynaphth-1-yl ester, hydrochloride]
inhibition at 1 µg/mL (leukotriene synthesis; 1 microgram/ml): 100%
inhibition of synthesis of leukotriene (leukotriene synthesis; 10 micrograms/ml): completely inhibited

COc1ccc2c(c1)c(CC(=O)O)c(C)n2C(=O)c1ccc(Cl)cc1 [indomethacin, reference compound]
block of normal baseline secretion (mucous secretion; indomethacin 5 mg/kg pretreatment, at least 30 minutes): about 20%
block of the effect of arachidonate alone (mucous secretion; indomethacin 5 mg/kg pretreatment, arachidonate 1.0 mg in the CTA): nicely blocked the effect of arachidonate alone

CCc1c(CC)c(OC(C)=O)c2ccccc2c1OC [Example 4, 2,3-Diethyl-4-methoxy-1-naphthalenol, acetate]
inhibition of 5-HETE production (lipoxygenase): completely inhibiting
inhibition at 10 µg/mL (SRS-A): 95%
areas with detached endothelial cells or exposed basement membrane (deep vein thrombosis; 1 mg/kg i.v.): Few areas with detached endothelial cells or exposed basement membrane
leukocyte adhesion or migration (deep vein thrombosis; 1 mg/kg i.v.): did not reduce leukocyte adhesion or migration
leukocyte release of hydrolytic enzymes and production of superoxides (deep vein thrombosis; 1 mg/kg i.v.): apparently inhibited
areas of adherent leukocytes (deep vein thrombosis; 5 mg/kg i.v.): only patchy areas of adherent leukocytes were observed
fibrin deposition (deep vein thrombosis; 5 mg/kg i.v.): Only occasional small areas of fibrin deposition
inhibitory effect on leukocyte mediated damage (deep vein thrombosis; 5 mg/kg i.v., compared with 1 mg/kg): even greater inhibitory effect on leukocyte mediated damage
numbers of adhering and migrating leukocytes (deep vein thrombosis; 5 mg/kg i.v., compared with control or 1 mg/kg group): appeared to be less
vascular surface with intact endothelial cell cover and few adherent leukocytes (deep vein thrombosis; 5 mg/kg i.v., with the exception of one vein): approximately half or more of the vascular surface
effect on the vascular changes (deep vein thrombosis; 1 and 5 mg/kg i.v. prior to venous occlusion): dose dependent effect on the vascular changes

CCCCc1cc(OC)c2ccccc2c1OC(C)=O [Example 3, 2-Butyl-4-methoxy-1-naphthalenol, acetate]
inhibition of 5-HETE production (lipoxygenase): completely inhibiting
pIC50 (lipoxygenase; lipoxygenase system, washed human platelets): ~7.00
% Inhibition of Agonist Response, Indo/AA (mucous secretion; 0.001%, inhalation, n=4, **p<0.005): 100%
% Inhibition of Agonist Response, Hypoxia (mucous secretion; 0.001%, inhalation, n=4, *p<0.05): 87%
% Inhibition of Agonist Response, Baseline: stimulation (.uparw.) (mucous secretion; 0.001%, inhalation, n=4, ↑ indicates stimulation): 24%
% Inhibition of Agonist Response, Indo/AA (mucous secretion; 1.0 mg/kg oral, predose time 3.5 hr, n=2): 50%
% Inhibition of Agonist Response, Baseline: stimulation (.uparw.) (mucous secretion; [1]): 6%
% Inhibition of Agonist Response, Hypoxia: stimulation (.uparw.) (mucous secretion; [1]): 11%
% Inhibition of Agonist Response, Indo/AA (mucous secretion; 1.0 mg/kg oral, predose time 5.0 hr, n=2, *p<0.05): 62%
% Inhibition of Agonist Response, Hypoxia (mucous secretion; [2]): 49%
% Inhibition of Agonist Response, Indo/AA (mucous secretion; [2]): 69%
% Inhibition of Agonist Response, Baseline: stimulation (.uparw.) (mucous secretion; 5 mg/kg oral, predose time 3.5 hr, n=2, ↑ indicates stimulation): 30%
% Inhibition of Agonist Response, Indo/AA (mucous secretion; 5 mg/kg oral, predose time 4.5 hr, n=2): 95%
% Inhibition of Agonist Response, Baseline (mucous secretion; 0.01%, inhalation, n=5): 19%
% Inhibition of Agonist Response, Hypoxia (mucous secretion; 0.01%, inhalation, n=5): 91%
% Inhibition of Agonist Response, Indo/AA (mucous secretion; 0.01%, inhalation, n=5, **p<0.005): 100%
% Inhibition of Agonist Response, Hypoxia (mucous secretion; 10 mg/kg oral, predose time 3 hr, n=2): 94%
% Inhibition of Agonist Response, Indo/AA (mucous secretion; 10 mg/kg oral, predose time 3 hr, n=2, *p<0.05): 100%
% Inhibition of Agonist Response, Baseline: stimulation (.uparw.) (mucous secretion; 10 mg/kg oral, predose time 3 hr, n=2, ↑ indicates stimulation): 5%
% Inhibition of Agonist Response, Indo/AA (mucous secretion; 10 mg/kg oral, predose time 4 hr, n=2, *p<0.05): 100%
% Inhibition of Agonist Response, Indo/AA (mucous secretion; 10 mg/kg oral, predose time 5 hr, n=2, *p<0.05): 100%
% Inhibition of Agonist Response, Baseline (mucous secretion; 0.1%, inhalation, n=4): 23%
% Inhibition of Agonist Response, Indo/AA (mucous secretion; 0.1%, inhalation, n=4, **p<0.005): 100%
% Inhibition of Agonist Response, Hypoxia (mucous secretion; 0.1%, inhalation, n=4, *p<0.05): 96%
% Inhibition of Agonist Response, Baseline (mucous secretion; 1.0%, inhalation, n=6): 6%
% Inhibition of Agonist Response, Hypoxia (mucous secretion; [3]): 100%
% Inhibition of Agonist Response, Indo/AA (mucous secretion; [3]): 100%
effect on baseline secretion and on enhanced mucus secretion due to hypoxia or arachidonic acid (mucous secretion; mongrel dog model): effective in blocking baseline secretion in a dose dependent fashion as well as enhanced mucus secretion due to hypoxia or arachidonic acid administration
inhibition at 10 µg/mL (SRS-A): 100%

CCCCc1cc(OC)c2ccccc2c1OC(=O)[C@H](C)N [L-Alanine, 2-n-butyl-4-methoxynaphth-1-yl ester]
inhibition at 1 µg/mL (leukotriene synthesis; 1 microgram/ml): 98%
inhibition of synthesis of leukotriene (leukotriene synthesis; 10 micrograms/ml): completely inhibited

CCCCc1cc(OC)c2ccccc2c1OC(=O)[C@@H](N)C(C)C.Cl [L-Valine, 2-n-butyl-4-methoxynaphth-1-yl ester, hydrochloride]
inhibition of synthesis of leukotriene (leukotriene synthesis; 1 microgram/ml): 93%
inhibition of synthesis of leukotriene (leukotriene synthesis; 10 micrograms/ml): completely inhibited

CCCCc1cc(OC)c2ccccc2c1OC(=O)[C@@H](N)C(C)C [L-Valine, 2-n-butyl-4-methoxynaphth-1-yl ester]
inhibition at 1 µg/mL (leukotriene synthesis; 1 microgram/ml): 97%
inhibition of synthesis of leukotriene (leukotriene synthesis; 10 micrograms/ml): completely inhibited

monohydroxyeicosatetraenoic acid
release of mucus from human airways (human airways): release mucus from human airway
